Experimental data: patent publication US12660819B2, “Herbicidal derivatives” (SYNGENTA CROP PROTECTION AG, priority 2020, dated 2026)

Key:
Assay type in all cases: in vivo
Setaria faberi (SETFA) [1] = experiment: Pre-emergence Test (glasshouse, percentage damage to the plant); conditions: 1000 g/ha unless otherwise stated, Setaria faberi
[2] = system: Amaranthus retoflexus (AMARE); experiment: as above; conditions: 1000 g/ha unless otherwise stated, Amaranthus retoflexus
[3] = system: Ipomoea hederacea (IPOHE); experiment: as above; conditions: 1000 g/ha unless otherwise stated, Ipomoea hederacea
[4] = system: Echinochloa crus-galli (ECHCG); experiment: as above; conditions: 1000 g/ha unless otherwise stated, Echinochloa crus-galli
[5] = system: Amaranthus palmeri (AMAPA); experiment: as above; conditions: 1000 g/ha unless otherwise stated, Amaranthus palmeri
Zea mays (ZEAMX) [6] = experiment: as above; conditions: 1000 g/ha unless otherwise stated, Zea mays
[7] = system: Echinochloa crus-galli (ECHCG); experiment: Post-emergence Test (glasshouse, percentage damage to the plant); conditions: post-emergence; 1000 g/ha unless otherwise stated; evaluated after 13 days
Summary of the method: (§1)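 Damage was rated 13 days after treatment and expressed on a five-point scale: 5=81-100%, 4=61-80%, 3=41-60%, 2=21-40%, 1=0-20%. Spray was applied at 1000 g/ha unless otherwise stated, from acetone/water (50:50) with 0.5% Tween 20, to sown pots.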

[8] = system: Amaranthus palmeri (AMAPA); experiment: as above; conditions: post-emergence; 1000 g/ha unless otherwise stated; evaluated after 13 days
Summary of the method: as §1

Setaria faberi (SETFA) [9] = experiment: as above; conditions: post-emergence; 1000 g/ha unless otherwise stated; evaluated after 13 days
Summary of the method: (§2)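 Compound formulated in 50:50 acetone/water with 0.5% Tween 20 was diluted to an aqueous spray and applied at 1000 g/ha, unless otherwise stated, onto sown pots. Evaluation after 13 days gave percentage damage, banded into a 1–5 score.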

[10] = system: Ipomoea hederacea (IPOHE); experiment: as above; conditions: post-emergence; 1000 g/ha unless otherwise stated; evaluated after 13 days
Summary of the method: as §2

[11] = system: Amaranthus retoflexus (AMARE); experiment: as above; conditions: post-emergence; 1000 g/ha unless otherwise stated; evaluated after 13 days
Summary of the method: as §1

Zea mays (ZEAMX) [12] = experiment: as above; conditions: post-emergence; 1000 g/ha unless otherwise stated; evaluated after 13 days
Summary of the method: as §2

| Compound | percentage damage to the plant, SETFA (five-point scale) (Setaria faberi (SETFA) [1]) | percentage damage to the plant, AMARE (five-point scale) [2] | percentage damage to the plant, IPOHE (five-point scale) [3] | percentage damage to the plant, ECHCG (five-point scale) [4] | percentage damage to the plant, AMAPA (five-point scale) [5] | percentage damage to the plant, ZEAMX (five-point scale) (Zea mays (ZEAMX) [6]) | ECHCG, percentage damage caused to the plant (five-point scale) [7] | AMAPA, percentage damage caused to the plant (five-point scale) [8] | SETFA, percentage damage caused to the plant (five-point scale) (Setaria faberi (SETFA) [9]) | IPOHE, percentage damage caused to the plant (five-point scale) [10] | AMARE, percentage damage caused to the plant (five-point scale) [11] | ZEAMX, percentage damage caused to the plant (five-point scale) (Zea mays (ZEAMX) [12]) |
| --- | --- | --- | --- | --- | --- | --- | --- | --- | --- | --- | --- | --- |
| CCn1c(C)c(-c2ccc(Cl)cc2)c(=O)c(C(=O)OC)c1-c1cnc(Cl)c(Cl)c1 [Compound 215, methyl 5-(4-chlorophenyl)-2-(5,6-dichloro-3-pyridyl)-1-ethyl-6-methyl-4-oxo-pyridine-3-carboxylate] | 4 (4=61-80%) | 4 (4=61-80%) | 1 (1=0-20%) | 2 (2=21-40%) | 3 (3=41-60%) | 0 | 3 (3=41-60%) | 4 (4=61-80%) | 3 (3=41-60%) | 1 (1=0-20%) | 4 (4=61-80%) | 3 (3=41-60%) |
| CCn1c(CBr)c(-c2ccc(Cl)cc2)c(=O)c(C(=O)OC)c1-c1ccc(Cl)c(Cl)c1 [Compound 218, methyl 6-(bromomethyl)-5-(4-chlorophenyl)-2-(3,4-dichlorophenyl)-1-ethyl-4-oxo-pyridine-3-carboxylate] | 0 | 0 | 0 | 0 | 0 | 0 | 1 (1=0-20%) | 3 (3=41-60%) | 2 (2=21-40%) | 0 | 3 (3=41-60%) | 1 (1=0-20%) |
| CCn1c(C)c(-c2ccc3ccccc3n2)c(=O)c(C(=O)O)c1-c1ccc(Cl)c(Cl)c1 [Compound 219, 2-(3,4-dichlorophenyl)-1-ethyl-6-methyl-4-oxo-5-(2-quinolyl)pyridine-3-carboxylic acid] | 1 (1=0-20%) | 0 | 0 | 0 | 1 (1=0-20%) | 0 | 1 (1=0-20%) | 3 (3=41-60%) | 1 (1=0-20%) | 3 (3=41-60%) | 3 (3=41-60%) | 0 |
| CCn1c(C)c(-c2ccc(Cl)cc2F)c(=O)c(C(=O)O)c1-c1cnc(Cl)c(Cl)c1 [Compound 242, 5-(4-chloro-2-fluoro-phenyl)-2-(5,6-dichloro-3-pyridyl)-1-ethyl-6-methyl-4-oxo-pyridine-3-carboxylic acid] | 5 (5=81-100%) | 4 (4=61-80%) | 4 (4=61-80%) | 5 (5=81-100%) | 5 (5=81-100%) | 2 (2=21-40%) | 5 (5=81-100%) | 5 (5=81-100%) | 5 (5=81-100%) | 4 (4=61-80%) | 5 (5=81-100%) | 4 (4=61-80%) |
| CCn1c(C)c(-c2cc(OCCOC)c(Cl)cc2F)c(=O)c(C(=O)O)c1-c1ccc(Cl)c(Cl)c1 [Compound 244, 5-[4-chloro-2-fluoro-5-(2-methoxyethoxy)phenyl]-2-(3,4-dichlorophenyl)-1-ethyl-6-methyl-4-oxo-pyridine-3-carboxylic acid] | 5 (5=81-100%) | 5 (5=81-100%) | 3 (3=41-60%) | 5 (5=81-100%) | 5 (5=81-100%) | 0 | 5 (5=81-100%) | 5 (5=81-100%) | 5 (5=81-100%) | 3 (3=41-60%) | 5 (5=81-100%) | 5 (5=81-100%) |
| CCn1c(C)c(-c2cc(OC(C)C)c(Cl)cc2F)c(=O)c(C(=O)O)c1-c1ccc(Cl)c(Cl)c1 [Compound 245, 5-(4-chloro-2-fluoro-5-isopropoxy-phenyl)-2-(3,4-dichlorophenyl)-1-ethyl-6-methyl-4-oxo-pyridine-3-carboxylic acid] | 5 (5=81-100%) | 5 (5=81-100%) | 2 (2=21-40%) | 5 (5=81-100%) | 5 (5=81-100%) | 0 | 5 (5=81-100%) | 5 (5=81-100%) | 5 (5=81-100%) | 4 (4=61-80%) | 5 (5=81-100%) | 3 (3=41-60%) |
| CCn1c(C)c(-c2cc(OCC3CC3)c(Cl)cc2F)c(=O)c(C(=O)O)c1-c1ccc(Cl)c(Cl)c1 [Compound 246, 5-[4-chloro-5-(cyclopropylmethoxy)-2-fluoro-phenyl]-2-(3,4-dichlorophenyl)-1-ethyl-6-methyl-4-oxo-pyridine-3-carboxylic acid] | 2 (2=21-40%) | 5 (5=81-100%) | 0 | 4 (4=61-80%) | 5 (5=81-100%) | 0 | 4 (4=61-80%) | 5 (5=81-100%) | 3 (3=41-60%) | 2 (2=21-40%) | 5 (5=81-100%) | 3 (3=41-60%) |
| Cc1c(-c2ccc(Cl)cc2Cl)c(=O)c(C(=O)O)c(-c2ccc(Cl)c(Cl)c2)n1C [Compound 251, 5-(2,4-dichlorophenyl)-2-(3,4-dichlorophenyl)-1,6-dimethyl-4-oxo-pyridine-3-carboxylic acid] | 0 | 1 (1=0-20%) | 0 | 0 | 2 (2=21-40%) | 0 | 1 (1=0-20%) | 3 (3=41-60%) | 0 | 0 | 4 (4=61-80%) | 1 (1=0-20%) |
